In general, GI50 refers to the concentration at which growth is held to half of that of the control.

Each structure is given as a SMILES string.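 Results reflect a 48-hour exposure of cells in 96-well plates to compound at five concentrations. GI50 is the concentration that inhibits growth by half.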 Active and inactive are the calls of the source. Cut-off read from the data, not from the text of the source: active = GI50 up to about 1.1 µM and inactive = higher. Some results are limits rather than exact numbers.

This is an account of results in ChEMBL document CHEMBL1201862, “PubChem BioAssay data set” (2004).

Common to all, as to experiment: DTP human tumour cell line panel, 48 h
For assay [1], the system named is DLD-1.
For assay [2], the system named is DMS-114.
The test system of assay [3] is DMS-273.
Assay [4] relates to HOP-18.
For assay [5], the system named is KM-20L2.
Assay [6] has as its system RXF 631.
In assay [7] the test system is SNB-78.
In assay [8] the test system is XF498.
Assay [9] deals with BT-549.

Take `C#CCN(Cc1ccc2nc(-c3ccccc3)c(Cl)nc2c1)c1cc(OC)c(OC)c(OC)c1`: the GI50 in [1] is > 100 µM (inactive); in assay [2] it was 14.3 µM (inactive); in assay [3], 99.5 µM (inactive); in assay [4] it was > 100 µM (inactive); in assay [5] it was > 100 µM (inactive); in assay [6] it was > 100 µM (inactive). In addition, the GI50 in assay [7] is > 100 µM (inactive).
`Nc1nc(Cl)cc(NCCCCCCCCCCNc2cc(Cl)nc(N)n2)n1`: the GI50 in assay [1] is 6.5 µM (inactive); in assay [3] it was 4.35 µM (inactive); in assay [4], 58.3 µM (inactive); in assay [5], 5.21 µM (inactive); in assay [6], 5.3 µM (inactive); in [7], 0.0638 µM (active). The GI50 in assay [8] is 1.25 µM (inactive).
Consider `COC(=O)C(C)Oc1ccc(O)cc1` (centres undefined), for which the GI50 in [1] is > 100 µM (inactive); in [2], 19.6 µM (inactive); in assay [3], > 100 µM (inactive); in assay [4], > 100 µM (inactive); in [5], > 100 µM (inactive); in assay [6], > 100 µM (inactive). The GI50 in assay [7] was > 100 µM (inactive).
`CC(C)=Cc1cc(C(=O)Nc2ccc(Cl)c(Cl)c2)nc(N)n1`: the GI50 in assay [1] is > 100 µM (inactive); in assay [2], > 100 µM (inactive); in assay [3], > 100 µM (inactive); in assay [4], 78.3 µM (inactive); in assay [5], > 100 µM (inactive); in [6], > 100 µM (inactive). Besides, the GI50 in assay [7] and in [8] was > 100 µM (inactive) each time.
`COC[n+]1cc2cc(OC)c(OC)cc2c2ccc3cc(OC)c(OC)cc3c21`: the GI50 in assay [1], in assay [2], in assay [4], in assay [5], in assay [6] and in [7] was > 100 µM (inactive) in each case.
`N#Cc1cccnc1Cl`: the GI50 in [1], in [2], in assay [3], in [4], in [5] and in assay [6] was > 100 µM (inactive) in each case. Also, the figures for the GI50 in assay [7] and in assay [8] were > 83.4 µM (inactive) and > 100 µM (inactive), respectively.
As to `O=C1C=Cc2noc3cccc1c23`, the GI50 is 1.66 µM (inactive) in assay [1]; 2.07 µM (inactive) in assay [2]; 6.61 µM (inactive) in [3]; 18.7 µM (inactive) in [4]; 15.5 µM (inactive) in [5]; 13.8 µM (inactive) in assay [6]. In addition, the GI50 in assay [7] is 2.86 µM (inactive).
On to `O=C(/C=C/c1ccccc1O)c1ccc([N+](=O)[O-])cc1`, for which the GI50 is 12.9 µM (inactive) in assay [1]; 10.3 µM (inactive) in assay [2]; 15.2 µM (inactive) in assay [3]; 30.1 µM (inactive) in assay [4]; 18.8 µM (inactive) in assay [5]; 18.7 µM (inactive) in assay [6]. In addition, the GI50 in assay [7] is 20.9 µM (inactive); in assay [8], 16.9 µM (inactive).
In the case of `COc1c(Br)cc(Br)c(OC)c1-c1[nH]c(Br)c(Br)c1Br`, the GI50 was 5.26 µM (inactive) in assay [1]; 4.8 µM (inactive) in [2]; 6.9 µM (inactive) in assay [3]; 2.54 µM (inactive) in assay [4]; 8.87 µM (inactive) in [5]; 6.64 µM (inactive) in [6]. For the same compound, the GI50 in assay [7] was 11.1 µM (inactive); in assay [8] it was 2.27 µM (inactive).
With `COc1cc(/C=C(\NC(=O)c2ccccc2)c2nc3cncnc3[nH]2)cc(OC)c1OC`, the GI50 in [1], in assay [3], in assay [5], in assay [6], in assay [7] and in [8] was > 100 µM (inactive) throughout.
In the case of `NCCNC(=O)c1cccc2cc3ccccc3nc12`, the GI50 in assay [1] was 2.77 µM (inactive); in assay [2], 1.77 µM (inactive); in [3], 2.3 µM (inactive); in assay [4] it was 14.7 µM (inactive); in [5] it was 1.61 µM (inactive); in assay [6] it was 4.47 µM (inactive). For the same compound, the figures for the GI50 in assay [7] and in assay [8] were 8.63 µM (inactive) and 2.04 µM (inactive), respectively.
In the case of `CCCCCCCCCCC(O)CCCCCCC(=O)O` (centres undefined), the GI50 in assay [1] was 19.3 µM (inactive); in assay [2] it was 23.1 µM (inactive); in [3], 22.4 µM (inactive); in assay [4], 27.9 µM (inactive); in assay [6], 19.1 µM (inactive); in assay [7] it was > 100 µM (inactive). In assay [8], the GI50 is 29.8 µM (inactive).
For the compound `O=C(OCc1ccccc1)N1N=NC2C3CC(OCc4ccccc4)(OCc4ccccc4)C(O3)C21` (centres undefined), the GI50 in [1] is 16.9 µM (inactive); in assay [2], 8.99 µM (inactive); in assay [3], 15.5 µM (inactive); in assay [4], 20.6 µM (inactive); in assay [5], 40.7 µM (inactive); in assay [6] it was 46 µM (inactive). The GI50 is 43.7 µM (inactive) in assay [7] and 22.7 µM (inactive) in assay [8].
For `COc1cc([C@@H]2c3cc4c(cc3[C@@H](OC(=O)c3ccccc3)C3COC(=O)[C@@H]32)OCO4)cc(OC)c1O` (some centres undefined), the GI50 in [2] was < 0.01 µM (active); in assay [3], < 0.01 µM (active); in [4] it was > 100 µM (inactive); in assay [5] it was 0.0128 µM (active); in assay [6], < 0.01 µM (active).
On to `CC(=O)OCC(=O)[C@@]1(O)CC[C@H]2[C@@H]3C[C@H](C)C4=CC(=O)C=C[C@]4(C)[C@@]3(F)[C@@H](O)C[C@@]21C`, for which the GI50 in [1], in assay [2], in [3], in [5], in assay [6] and in [7] was > 100 µM (inactive) throughout. For the same compound, the GI50 in assay [8] is > 100 µM (inactive).
As to `COC1C(OC(=O)/C=C/C=C/C=C/C=C\C(=O)O)CCC2(CO2)C1C1(C)OC1CC=C(C)C` (centres undefined), the GI50 in [9], in assay [1], in assay [2], in assay [3], in [5] and in assay [6] was > 100 µM (inactive) in each case. The GI50 in assay [8] is > 100 µM (inactive).
On to `COc1ccc(OC)c(N2CC(N)C2=O)c1` (centres undefined), for which the GI50 in [3], in assay [4], in assay [5], in assay [6] and in assay [8] was > 100 µM (inactive) each time.
